Article PMC8838850, “Synthesis, Antimicrobial, Anti-Virulence and Anticancer Evaluation of New 5(4H)-Oxazolone-Based Sulfonamides” (Molecules, 2022)
≈ marks a conversion by molar mass, not a printed value.

How the values were obtained:
[1] = tested on: P. aeruginosa ATCC 47,085; experiment: Biofilm formation assay (crystal violet, light microscopy); assay type: cell-based, Pseudomonas aeruginosa; settings: sub-MIC (½ MIC), crystal violet method
Protocol: Bacterial virulence is regulated via a quorum sensing (QS) system in an inducer/receptor manner. Diminishing bacterial virulence is an advantageous strategy to decrease the development of bacterial resistance. In this direction, anti-virulence and anti-QS activities have been explored in several studies as reviewed. The ability of P. aeruginosa or S. aureus to form biofilms was assayed in the absence or presence of tested compounds at sub-MIC. […] The experiment was conducted in triplicate and a one-way ANOVA test was employed to test the statistical significance using Graphpad Prism 8 software. The results were significant statistically where p values < 0.05. Moreover, microscopic visualization of biofilm under the effect of tested compounds was also performed by light microscopy. Representative images for the inhibitory effects on S. aureus and P. aeruginosa biofilm formation are shown (Figure 3C,D). The microscopic images show a marked reduction in both the thickness of and surface area covered by the biofilms in presence of the tested compound.
In order to evaluate the ability of the tested compounds to inhibit the biofilm formation, a strong biofilm forming P. aeruginosa ATCC 47,085 [47, 66] and S. aureus ATCC 6538 [67] strains were used. As described earlier, suspensions of tested strains were prepared from overnight cultures in TSB and their optical densities were adjusted to OD600 of 0.4 (1×10^8 CFU/mL). Aliquots of 10 μL of the suspensions were added to 1 mL amounts of fresh TSB with or without sub-MICs of tested compounds. […] The non-adherent cells were removed, the wells were washed with sterile PBS, and left to dry. The attached biofilm forming cells were fixed with methanol for 25 min and stained with 1% crystal violet for 30 min. The excess dye was washed out and the crystal violet staining adhered biofilm forming cells were eluted by glacial acetic acid (33%). The experiment was conducted in triplicate and the absorbance was measured at 590 nm. The absorbances of tested strains treated with different compounds were expressed as mean ± standard error of percentage change from untreated tested strains control. The percentages of biofilm inhibition were calculated employing the following formula: (absorbance of control—absorbance in presence of tested compounds)/absorbance of control.

[2] = tested on: Candida albicans ATCC 10231; experiment: MIC by agar dilution (antifungal); assay type: cell-based; settings: Candida albicans, ATCC10231, Candida albicans ATCC 10231, read-out: Minimum inhibitory concentration (MIC)
Protocol: (§1) The MICs of the synthesized compound were determined by agar dilution method according to the Clinical Laboratory and Standards Institute Guidelines (CLSI, 2015). Briefly, the tested strains were incubated overnight in tryptic soy broth (TSB) (Oxoid, United Kingdom) and then diluted in Muller–Hinton (MH) broth (Oxoid, United Kingdom) to turbidity approximating to the equivalent of 0.5 McFarland standard. The suspensions were further diluted with sterile saline (1:10) and standardized inoculums (approximately 10^4 CFU per spot) were spotted on the surfaces of MH agar (Oxoid, United Kingdom) plates containing different concentrations of tested compounds and a control plate. The MICs were the lowest concentrations that inhibit growth on the plates after incubation at 37 °C for 20 h.

[3] = tested on: Aspergillus niger ATCC 16404; experiment: MIC by agar dilution (antifungal); assay type: cell-based; settings: ATCC16404, read-out: Minimum inhibitory concentration (MIC)
Protocol: as §1

P. aeruginosa = experiment: Quantification of pyocyanin pigment; assay type: cell-based, Pseudomonas aeruginosa; settings: sub-MIC
Protocol: The ability of selected compounds 5, 7 and 10 at sub-MIC to reduce the P. aeruginosa pyocyanin pigment production was estimated as described earlier. P. aeruginosa overnight cultures were prepared and diluted in LB broth at 600 nm (O.D0.4), and 10 μL of the bacterial suspensions were added to 1mL broth tubes containing, or not, tested drugs at sub-MIC. After incubation for 48 h at 37 °C, the tubes were centrifuged and the pyocyanin in the supernatant was assayed spectrophotometrically at 691 nm by a Biotek spectrofluorometer (Biotek, Winooski, VT, USA). The experiment was repeated in triplicate, and the pyocyanin absorbances in the presence of tested compounds were expressed as mean ± standard error of percentage change from untreated controls. The percentages of pigment production were calculated using the formula: (absorbance of control − absorbance in presence of tested compounds)/absorbance of control.

S. aureus = experiment: Quantification of staphyloxanthin pigment; assay type: cell-based, Staphylococcus aureus; settings: sub-MIC
Protocol: Staphyloxanthin and intermediate carotenoids were extracted from S. aureus treated or untreated with compounds 5, 7 and 10 at sub-MIC as described. Bacterial cells were cultivated in TSB at 37 °C for 24 h, then cells were collected by centrifugation, and washed twice with phosphate-buffered saline (PBS). The obtained pellets were used to extract staphyloxanthin with methanol. The pellets (5 gm of) were resuspended in 20 mL methanol, and heated with gentle stirring at 55 °C in a water bath for 5 min. Then, the methanol extract liquids were cooled and centrifuged, and the absorbances of the produced staphyloxanthin were quantified spectrophotometrically at 450 nm (Biotek, Winooski, VT, USA). The experiment was repeated in triplicate, and the pigment absorbances in the presence of tested compounds were expressed as mean ± standard error of percentage change from untreated controls. The percentages of pigment production were calculated using the formula: (absorbance of control − absorbance in presence of tested compounds)/absorbance of control.

[4] = tested on: Staphylococcus epidermidis ATCC 12228; experiment: MIC by agar dilution; assay type: cell-based; settings: ATCC12228, 37 °C, 20 h, read-out: Minimum inhibitory concentration (MIC)
[5] = tested on: Salmonella typhimurium ATCC 14028; experiment: MIC by agar dilution; assay type: cell-based; settings: Salmonella enterica, 37 °C, 20 h, read-out: Minimum inhibitory concentration (MIC)
BxPC-3 = experiment: SRB cellular proliferation assay; assay type: cell-based, human; settings: Homo sapiens, BxPC-3 cells, mean ± SD (n = 3), read-out: IC50
Protocol: (§2) The pancreatic human cancer cell lines BxPC-3 and Panc-1, the human hepatocellular carcinoma (HepG-2), and the normal immortalized pancreatic cell line HPDE, that were used in this study, were obtained from the American Type Culture Collection (Rockville, USA). Cell lines were cultured and treated with the tested compounds or dimethyl sulfoxide (DMSO) as previously described. Cells were cultivated in DMEM medium (Invitrogen, Carlsbad, CA, USA), supplemented with streptomycin, penicillin and fetal bovine serum (FCS) (Invitrogen, Carlsbad, CA, USA). The sulforhodamine B (SRB) assay was employed to assess the anti-proliferative effects of tested compounds on cancer cells. Cell lines were incubated and regularly treated with DMSO or increasing doses of tested compounds for 48 h. The cells were fixed with 10% trichloroacetic acid and stained with SRB fluorescent dye for 30 min. Then, the bounded SRB dye to cellular proteins was dissolved in 10 mM Tris base after washing excess dye with 1% acetic acid. The absorbance was measured at 510 nm in a reader (Biotek, Winooski, VT, USA).

Panc-1 = experiment: SRB cellular proliferation assay; assay type: cell-based, human; settings: Homo sapiens, Panc-1 cells, mean ± SD (n = 3), read-out: IC50
Protocol: as §2

HepG-2 = experiment: SRB cellular proliferation assay; assay type: cell-based, human; settings: Homo sapiens, HepG2, HepG-2 cells, mean ± SD (n = 3), read-out: IC50
Protocol: as §2

Structure (SMILES): COc1ccc(/C=C2/N=C(c3ccccc3NS(=O)(=O)c3ccc(C)cc3)OC2=O)cc1 [Compound 9b, (E)-N-(2-(4-(4-Methoxybenzylidene)-5-oxo-4,5-dihydrooxazol-2-yl)phenyl)-4-methylbenzenesulfonamide]
- Inhibition of biofilm formation [1]: highest abilities to inhibit biofilm formation
- MIC [2]: > 32 µg/mL
- MIC [3]: > 32 µg/mL
- Production of pigment pyocyanin (P. aeruginosa): significantly decreased the production
- Production of pigment staphyloxanthin (S. aureus): significantly decreased the production
- MIC [4]: 1 µg/mL (≈ 2.23 µM)
- MIC [5]: 4 µg/mL (≈ 8.92 µM)
- IC50 (BxPC-3): 14.9 ± 4.19 µg/mL (≈ 33.2 µM)
- IC50 (Panc-1): 13.6 ± 1.16 µg/mL (≈ 30.4 µM)
- IC50 (HepG-2): 8.53 ± 1.1 µg/mL (≈ 19 µM)

Structure (SMILES): Cc1ccc(S(=O)(=O)Nc2ccccc2C2=N/C(=C/c3ccc([N+](=O)[O-])cc3)C(=O)O2)cc1 [Compound 9f, (E)-4-Methyl-N-(2-(4-(4-nitrobenzylidene)-5-oxo-4,5-dihydrooxazol-2-yl)phenyl)benzenesulfonamide]
- Inhibition of biofilm formation [1]: highest abilities to inhibit biofilm formation
- MIC [2]: > 32 µg/mL
- MIC [3]: > 32 µg/mL
- Production of pigment pyocyanin (P. aeruginosa): significantly decreased the production
- Production of pigment staphyloxanthin (S. aureus): significantly decreased the production
- MIC [4]: 2 µg/mL (≈ 4.32 µM)
- MIC [5]: 2 µg/mL (≈ 4.32 µM)
- IC50 (BxPC-3): 14.2 ± 1.87 µg/mL (≈ 30.6 µM)
- IC50 (Panc-1): 12.6 ± 1.2 µg/mL (≈ 27.2 µM)
- IC50 (HepG-2): 6.39 ± 1.25 µg/mL (≈ 13.8 µM)

Structure (SMILES): Cc1ccc(S(=O)(=O)Nc2ccccc2C2=N/C(=C/c3ccccc3)C(=O)O2)cc1 [Compound 9a, (E)-N-(2-(4-Benzylidene-5-oxo-4,5-dihydrooxazol-2-yl)phenyl)-4-methylbenzenesulfonamide]
- Inhibition of biofilm formation [1]: highest abilities to inhibit biofilm formation
- MIC [2]: 16 µg/mL (≈ 38.2 µM)
- MIC [3]: 32 µg/mL (≈ 76.5 µM)
- Production of pigment pyocyanin (P. aeruginosa): significantly decreased the production
- Production of pigment staphyloxanthin (S. aureus): significantly decreased the production
- MIC [4]: 4 µg/mL (≈ 9.56 µM)
- MIC [5]: 4 µg/mL (≈ 9.56 µM)
- IC50 (BxPC-3): 14.4 ± 0.73 µg/mL (≈ 34.4 µM)
- IC50 (Panc-1): 11.9 ± 0.76 µg/mL (≈ 28.6 µM)
- IC50 (HepG-2): 11 ± 2.39 µg/mL (≈ 26.2 µM)
